According to patent US9161900B2, “Cosmetic composition for inhibiting hair loss and enhanced hair growth” (AMOREPACIFIC CORPORATION, priority 2011, dated 2015):

Tested on: LNCaP cells having the androgen receptor
Assay: Androgen receptor inhibition assay (LNCaP cell viability, WST-1)
Details: Homo sapiens, 48 h, read-out: Cell viability (%)
Method: The human prostate cancer cell line LNCaP cells were acquired from the American Type Culture Collection (Manassas, Va., USA) and cultured for 24 hours in RPMI 1640 medium containing 10% fetal bovine serum (FBS) and 2 mM 1-glutamine in an incubator maintained at 5% CO2 and 37° C.
Cell viability of the cultured cells was measured using the WST-1 reagent.

C[C@]12CCC(=O)C[C@@H]1CC[C@@H]1[C@@H]2CC[C@]2(C)[C@@H](O)CC[C@@H]12 [DHT, dihydrotestosterone]
viability at 0.001 µM: 119%
